Laboratory results: the RepoRT retention time repository

Assay: RP, Waters ACQUITY UPLC BEH C18, 50 × 2.1 mm, 1.7 µm, 40 °C, 0.6 mL/min, estimated dead time 0.18 min; A: water + 0.1% formic acid, pH 3; B: acetonitrile + 0.1% formic acid, pH 3; gradient (min/%B) 0/5 7/100 8/100
Conditions: stereoisomer not certain

SMILES | LC retention time
CCC(O)c1cc(=O)oc2c(C(=O)CC(C)C)c(O)c(CC=C(C)C)c(O)c12 (stereo unspecified) | 5.49 min
CCN1CC2(COC(=O)c3ccccc3NC(=O)C(C)CC(=O)O)CCC(OC)C34C5CC6C(OC)CC(O)(C5C6OC)C(O)(C(OC)C23)C14 (stereo unspecified) | 2.37 min
C[C@@H]1CC2(NCCS2)[C@]2(O)OC3C[C@@]4(C=O)C(CCC5C4CC[C@]4(C)C(C6=CC(=O)OC6)CC[C@]54O)CC3OC2O1 (stereo partly specified) | 0.611 min
CC1CCC2(OC1)OC1CC3C4C(O)C(=O)C5(O)C(O)C(O)C(O)C(O)C5(C)C4CCC3(C)C1C2C (stereo unspecified) | 3.19 min
COc1cc2c(cc1OC)-c1c(OC)c(OC)cc3c1C(C2)N(C)CC3 (stereo unspecified) | 1.87 min
C/C=C1\CN2CCc3c([nH]c4ccccc34)[C@@H]2C[C@@H]1/C(=C\OC)C(=O)OC | 2.41 min
CC(C)=CCCC(C)C12C=CC(C)(CC1)OO2 (stereo unspecified) | 4.96 min
CCCCCCCCCCCCCCC(O)C(O)CCC(O)C1CCC(CCCCCC(O)CC2=CC(C)OC2=O)O1 (stereo unspecified) | 6.01 min
CCCCCCCCC/C=C\CCCC[C@@H]1CCC[C@@H](C)N1 [(2R,6R)-2-methyl-6-[(5Z)-pentadec-5-en-1-yl]piperidine] | 4.68 min
COc1cc2c3c(c1O)Oc1ccc(cc1)CC1c4c(cc(OC)c(O)c4Oc4ccc(cc4)CC3N(C)CC2)CCN1C (stereo unspecified) | 1.44 min
CCC1CC2CC3(C(=O)OC)c4[nH]c5ccccc5c4CCN(C2OC)C13 (stereo unspecified) | 1.77 min
CC(=O)OCC1=C2C(OC(=O)/C=C(/C)COC(C)=O)CC(C)C(=O)CC(=O)C3(C)OC3C2OC1=O (stereo unspecified) | 3.5 min
C=C(C(=O)C(OC(C)=O)C(C)C1C(OC(C)=O)CC2(C)C3CCC4C(C)C(=O)C=CC45CC35CCC12C)C(C)CO (stereo unspecified) | 4.41 min
C=C(C)C12CC(C)C34OC(CCCCCCCCCCCCC)(OC1C3C1OC1(CO)C(O)C1(O)C(=O)C(C)=CC14)O2 (stereo unspecified) | 6.97 min
CC[C@H]1NC2C[C@@]3(C(=O)N(OC)c4cc(OC)ccc43)C3CC1C2CO3 (stereo partly specified) | 1.95 min
CC(CC[C@@H](C)[C@H]1CCC2C3C[C@H](OS(=O)(=O)O)[C@H]4C[C@H](OS(=O)(=O)O)C(OS(=O)(=O)O)C[C@]4(C)C3CC[C@@]21C)C(C)(C)C (stereo partly specified) | 1.41 min
COc1cc2c(cc1O)CC1NCCc3cc(OC)c(OC)c-2c31 (stereo unspecified) | 1.58 min
C=C(C(=O)CC(C)C1CCC2(C)C3CCC4C(C)(C(=O)OC5OC(C)C(O)C(O)C5O)C(O)CCC45CC35CCC12C)C(C)C (stereo unspecified) | 5.23 min
C[C@@H]1CC2(NCCS2)C(=O)C(O[C@@H]2CC3CCC4C(CC[C@]5(C)[C@@H](C6=CC(=O)OC6)CC[C@]45O)[C@@]3(C=O)C[C@H]2O)O1 (stereo partly specified) | 1.89 min
COc1cc2c3c(c1OC)Oc1ccc(cc1)CC1c4c(cc(OC)c(OC)c4Oc4ccc(cc4)CC3N(C)CC2)CCN1C (stereo unspecified) | 1.79 min
CCCCCCCCCCCCO[C@@H]1O[C@@H](C)[C@H](O[C@@H]2O[C@@H](C)[C@H](OC(C)=O)[C@@H](O[C@@H]3O[C@@H](C)[C@H](OC(C)=O)[C@@H](O[C@@H]4O[C@@H](C)[C@H](OC(C)=O)[C@@H](O)[C@H]4O)[C@H]3OC(C)=O)[C@H]2O)[C@@H](O)[C@H]1O | 5.82 min

Further lines, results first:

LC retention time | SMILES
2.49 min | COc1c2occc2cc2ccc(=O)oc12 [9-methoxy-7H-furo[3,2-g]chromen-7-one]
5.37 min | COc1cc(/C=C/c2ccc(OCC=C(C)C)cc2)cc(OC)c1
0.287 min | COc1c(O)cc(-c2oc3cc(O)cc(O)c3c(=O)c2O[C@@H]2O[C@@H](C)[C@H](O)[C@@H](O)[C@H]2O)cc1O
3.14 min | CC(=O)OC(C)(C)C=CC(=O)C(C)(O)C1C(O)CC2(C)C3CC=C4C(=COC(=O)C4(C)C)C3(C)C(=O)CC12C (stereo unspecified)
6.11 min | CCC(C)C(=O)C1=C(O)C2(CC=C(C)C)CC(CCC(C)(C)OC(=O)C(F)(F)F)C(C)(C)C(C(CC(=O)O)c3ccccc3)=C2OC1=O (stereo unspecified)
5.4 min | CC(=O)O[C@@H](C[C@@H](C)C1=C2CC(O)C3[C@@]4(C)CCC(=O)C(C)(C)C4CC[C@]3(C)[C@@]2(C)CC1)[C@H]1OC1(C)C (stereo partly specified)
3.04 min | C=C1CCC2(OC1)OC1CC3C4C(O)C(=O)C5(O)C(O)C(O)C(O)C(O)C5(C)C4CCC3(C)C1C2C (stereo unspecified)
3.58 min | COc1c(O)c(O)c(-c2c(O)c(O)c(OC)c3oc4ccccc4c23)c2c1oc1ccccc12
2.95 min | C=C1[C@@H](O)C[C@@H]2[C@](C)(CCC[C@@]2(C)C(=O)O)[C@H]1CC1C(C)=CCC2C(=O)C(OC)=CC(=O)C21c1cc(=O)c2c(O)cc(O)cc2o1 (stereo partly specified)
3.33 min | COC(=O)C1=CC(O)C23OC1CC2(C)CC[C@H](C(C)C)O3 (stereo partly specified)
0.738 min | COc1c(O)cc2c3c1C1(C=CC(=O)C=C1)CC3N(C)CC2 (stereo unspecified)
1.6 min | COc1cc2c3c(c1OC)Oc1ccc(cc1)CC1c4c(cc(OC)c5c4Oc4ccc(cc4CO5)CC3N(C)CC2)CCN1C (stereo unspecified)
2.27 min | CC(=O)OC1CC(O)C23COCC1(C)C2CC(O)C1(C)C3C(=O)C(O)C2(C)C(c3ccoc3)CC3OC321 (stereo unspecified)
3.1 min | COc1ccc(-c2cc(=O)c3c(O)cc(O)cc3o2)cc1-c1c(O)cc(O)c2c(=O)cc(-c3ccc(O)cc3)oc12
2.81 min | O=C(c1ccc(O)cc1O)[C@H]1[C@H](C(=O)c2ccc(O)cc2O)[C@H](c2ccc(O)cc2)O[C@@H]1c1ccc(O)cc1
2.1 min | COc1c(-c2c(C)cc(OC)c3c(OC)cccc23)c(O)cc2c1C(C)NC(C)C2 (stereo unspecified)
1.77 min | Oc1ccc(C2c3c(O)cc(O)cc3C3C(c4ccc(O)cc4)c4c(O)cc(O)cc4C23)cc1 (stereo unspecified)
3.25 min | CC(O)c1cncc2c(=O)n3c(cc12)-c1[nH]c2ccccc2c1CC3 (stereo unspecified)
1.8 min | Cn1c(Cc2ccccc2)nc(=O)c2ccccc21 [2-benzyl-1-methyl-1,4-dihydroquinazolin-4-one]
1.05 min | COc1cc2c(cc1O)C(Cc1ccc(O)cc1)NCC2 (stereo unspecified)
4.1 min | CC1=CC2CC(C)C(CO)/C=C(\C)C(O)C(=O)/C=C(\C)CCC12 (stereo unspecified)
1.59 min | COc1cc2c3cc1Oc1c(cccc1OC)CC1c4c(cc(O)c(OC)c4Oc4cccc(c4)CC3N(C)CC2)CCN1C (stereo unspecified)
5.22 min | C/C(=C\C1CC(C2CCC34CC23C=CC2C3(C)CC=C5CC(c6ccccc6)OCC5(C)C3CC(O)C24C)C(=O)O1)CO (stereo unspecified)
4.7 min | COc1cc(O)c2c(c1)C(=O)c1cc(C)cc(O)c1C2=O
6.13 min | CC(C)=CCC1CC2(CC=C(C)C)C(O)=C(C(=O)C(C)C)C(=O)OC2=C(C(CC(=O)O)c2ccccc2)C1(C)C (stereo unspecified)
3.18 min | C=CCc1ccc(O)c(-c2ccc(O)c(CC=C)c2)c1 [3',5-bis(prop-2-en-1-yl)-[1,1'-biphenyl]-2,4'-diol]
0.28 min | COc1cc(CC(CO)C(CO)Cc2ccc(O)c(OC)c2)ccc1O (stereo unspecified) [2,3-bis[(4-hydroxy-3-methoxyphenyl)methyl]butane-1,4-diol]
2.97 min | C=C(C)C(CCC(C)(C)O)Cc1c(O)cc(O)c2c1OC(c1ccc(O)cc1O)CC2=O (stereo unspecified)
1.08 min | COC1C2(O)COC3=CC(=O)C=CC31c1cc(O)c(O)cc1C2 (stereo unspecified)
5.93 min | CC(C)=CCC1CC23CC(CC=C(C)C)C(C)(C)C(CC=C(C)C)(C(=O)C(C(=O)c4ccc(O)c(O)c4)=C2OC1(C)C)C3=O (stereo unspecified)
